Several values for one entry are separate records, joined by “and”; a condition that tells them apart may be missing. Identical values can stand only once. Like-named read-outs stand apart in the source and are kept apart here. Marks after values point to notes of the source that are not given here.
Key:
NIH Swiss mice [1] = test: Locomotor activity by biotelemetry (cannabinoid tetrad); assay type: in vivo, mouse; settings: 10 mg/kg, i.p.
CB1Rs [2] = biological target: T1, CB1Rs (Mus musculus (Mouse), UniProt P47746); test: [35S]GTPγS binding assay (G-protein activation) in mouse brain homogenates; assay type: biochemical; settings: for [35S]GTPγS Binding, +O-2050 (1 μM): 1 μM cannabinoid (100 nM for CP-55,940) co-incubated with CB1R antagonist O-2050 1 μM; for [35S]GTPγS Binding, 10 μM: receptor-saturating concentration 10 μM
Protocol: (§1) Mouse brain homogenates for in vitro assays were prepared as previously described. Briefly, whole brains were harvested from B6SJL mice, snap-frozen in liquid nitrogen and stored at −80° C. On the day membrane homogenates were to be prepared, brains were thawed on ice, then pooled in a 40 mL Dounce glass homogenizer and suspended in 5 volumes of ice cold homogenization buffer (50 mM HEPES, pH 7.4, 3 mM MgCl2, and 1 mM EGTA). Brains were then subjected to 10 complete strokes with an A pestle, followed by centrifugation at 40,000×g for 10 minutes at +4° C. Resulting supernatants were discarded, and the pellet was resuspended, homogenized and centrifuged similarly twice more, with supernatants being discarded. For the final resuspension and homogenization with a B pestle, ice-cold 50 mM HEPES was used in place of homogenization buffer, and homogenates were aliquoted and stored at −80° C. Protein concentrations of homogenates were determined using the BCA™ Protein Assay (Thermo Scientific, Rockford, Ill.).
[^35S]GTPγS binding was performed as previously described. Briefly, 25 μg of mouse brain homogenates were incubated for 30 minutes at 30° C. with 0.1 nM [^35S]GTPγS, 10 μM GDP, and either cannabinoid+/−antagonist, 10 μM unlabeled GTPγS (non-specific binding) or vehicle (total binding), in triplicate, in a volume of 1 mL of buffer containing 20 mM HEPES, 10 mM MgCl2, 100 mM NaCl, 20 units/L adenosine deaminase, 0.05% BSA and the appropriate DMSO (0.1%) and/or ethanol (<0.2%) vehicle. Assay buffer containing 100 mM KCl, instead of 100 mM NaCl, was used to increase basal G-protein activity in experiments examining inverse agonism. Reactions were terminated by quick vacuum filtration through Whatman GF/B glass fiber filters, followed by five washes with ice-cold buffer (20 mM HEPES, 0.05% BSA). Filters were immediately placed into 7 mL scintillation vials to which 4 mL of ScintiVerse™ BD Cocktail scintillation fluid was added. Bound radioactivity was determined after overnight incubation at room temperature and shaking by liquid scintillation spectrophotometry with an efficiency of 93% (Tri Carb 2100 TR Liquid Scintillation Analyzer, Packard Instrument Company, Meriden, Conn.). Specific binding is expressed as picomoles of [^35S]GTPγS bound per mg of protein.
(§2) Curve fitting and statistical analyses for in vitro experiments were performed using GraphPad Prism™ version 5.0b (GraphPad Software Inc., San Diego, Calif.). The Cheng-Prusoff equation [45] was used to convert the experimental IC50 values obtained from competition receptor binding experiments to Ki values, a quantitative measure of receptor affinity. Non-linear regression for one-site competition was used to determine the IC50 for competition receptor binding. Curve fitting of concentration-effect curves via non-linear regression was also employed to determine the EC50 (a measure of potency) and Emax (a measure of efficacy) for [^35S]GTPγS concentration-effects experiments. […] Data are expressed as mean±SEM. The Student's t-test was used to determine statistical significance (P<0.05) between two groups, while a one-way ANOVA, followed by Tukey's Multiple Comparison post-hoc test, was used to determine statistical significance (P<0.05) between three or more groups.

NIH Swiss mice [3] = test: Core body temperature by biotelemetry (cannabinoid tetrad, hypothermia); assay type: in vivo, mouse; settings: i.p.
Protocol: Prior to surgery (see below), male NIH Swiss mice (Harlan Sprague Dawley Inc., Indianapolis, Ind.), weighing approximately 25-30 g, were housed 3 animals per Plexiglas® cage (15.24×25.40×12.70 cm) in a temperature-controlled room in an Association for Assessment and Accreditation of Laboratory Animal Care (AAALAC) accredited animal facility at the University of Arkansas for Medical Sciences. Room conditions were maintained at 22±2° C. and 45-50% humidity. Lights were set to a 12-h light/dark cycle. Animals were fed Lab Diet rodent chow (Laboratory Rodent Diet #5001, PMI Feeds, Inc., St. Louis, Mo.) and water ad libitum throughout testing Animals were acclimated to the laboratory environment for ˜7 days prior to experiments, and to the biotelemetry chambers for at least 2 hours prior to initiation of data acquisition. All test conditions used groups of 5 or 6 mice, and all mice were drug-naïve (with the exception of surgical anesthetics) prior to testing.
Cannabinoid effects on core temperature and locomotor activity were measured using surgically-implanted biotelemetry probes. Following appropriate anesthetization with ketamine (100 mg/kg, intraperitoneal [i.p.]) and xylazine (10 mg/kg, i.p.), the abdominal area of each mouse was shaved and sanitized with iodine swabs. A rostral-caudal cut approximately 1.5 cm in length was made with skin scissors, providing access to the intraperitoneal cavity. A cylindrical glass-encapsulated radiotelemetry probe (model ER-4000 E-Mitter, Mini Mitter Co., Inc., Bend, Oreg.) was then inserted, and the incision was closed using absorbable 5-0 chromic gut suture material. At least 7 days were imposed between surgery and experimental observation of cannabinoid effects to allow incisions to heal and mice to recover normal body weights. Following surgery, implanted mice were individually housed in Plexiglas® mouse cages (15.24×25.40×12.70 cm) for the duration of all temperature and locomotor activity experiments Implanted transmitters produced activity- and temperature-modulated signals that were transmitted to a receiver (model ER-4000 Receiver, Mini Mitter Co., Inc., Bend, Oreg.) underneath each mouse cage. Receivers were housed in light- and sound-attenuating cubicles (Med Associates model ENV-022MD, St. Albans, Vt.) equipped with exhaust fans, which further masked ambient laboratory noise. On experimental days, mice were weighed, marked, and returned to their individual cages during which at least 1 hr of baseline data were collected. […]. Mice were then placed into a new cage with fresh bedding to stimulate exploratory behavior. Temperature and locomotor activity data were collected at regular 5-min intervals and processed simultaneously by the Vital View data acquisition system (Mini Mitter Co., Inc., Bend, Oreg.) for at least 10 hrs.
For core body temperature experiments, the area under the curve (AUC) was calculated using a trapezoidal rule from 0-500 minutes, and statistical significance (P<0.05) was determined using a one-way ANOVA, followed by Tukey's HSD post-hoc test. For locomotor activity, total locomotor counts were summed from 0-800 minutes. Because locomotor, analgesia and catalepsy data were not normally distributed, Kruskal-Wallis one-way ANOVA on ranks were performed, and all pair-wise comparisons were then made using the Tukey's HSD tests. In vivo statistical calculations were performed using SigmaStat 3 (Systat Software, Inc., San Jose, Calif.).

CB1Rs [4] = biological target: T1, CB1Rs; test: Competition receptor binding with [3H]CP-55,940 in mouse brain homogenates
Protocol: as §1
(§3) Competition receptor binding was performed as previously described. […] Reactions were terminated by rapid vacuum filtration through Whatman GF/B glass fiber filters, followed by five washes with ice-cold buffer (50 mM Tris, 0.05% BSA). Filters were immediately placed into 7 mL scintillation vials to which 4 mL of ScintiVerse™ BD Cocktail scintillation fluid (Fisher Scientific, Fair Lawn, N.J.) was added. Bound radioactivity was determined after overnight incubation at room temperature and shaking, by liquid scintillation spectrophotometry with an efficiency of 44% (Tri Carb 2100 TR Liquid Scintillation Analyzer, Packard Instrument Company, Meriden, Conn.). Specific binding is expressed as total binding minus non-specific binding, and is graphed for each data point as a percentage of specific binding occurring in the absence of any competitor.
as §2
(§4) The prepared analogues were subjected to in vitro pharmacological testing, which included receptor binding and functional assays at both cannabinoid receptors. Initial receptor binding screens at both CB1Rs and CB2Rs were conducted for the analogues prepared.

[5] = biological target: CB1Rs endogenously expressed in Neuro2A cells (Mus musculus (Mouse), UniProt P47746); test: Adenylyl cyclase (AC) inhibition via CB1Rs endogenously expressed in Neuro2A cells; assay type: cell-based
hCB2Rs [6] = biological target: T2, hCB2Rs (Homo sapiens (Human), UniProt P34972); test: Inhibition of forskolin-stimulated cAMP production (adenylyl cyclase) in intact CHO-hCB2R cells; assay type: cell-based; settings: 10 μM, CHO cell transfected with hCB2 receptors; read-out: AC-inhibition at CB2Rs
Protocol: Adenylyl cyclases are a family of membrane-bound enzymes that catalyze the intracellular production of the second messenger cAMP from ATP. Adenylyl cyclase activity is modulated by activated G-proteins: Gs-proteins stimulate activity, while Gi/o-proteins are inhibitory. Thus, agonists of G-protein coupled receptors (GPCRs) coupled to Gi/o-proteins, such as hCB2Rs, decrease cAMP production due to inhibition of adenylyl cyclase activity. In this assay, intact CHO-hCB2R cells are preincubated with [^3H]-adenine and treated with forskolin (10 or 30 μM) to stimulate adenylyl cyclase activity.
A functional assay screen for the inhibition of adenylate cyclase (AC) activity was chosen as the subsequent assay. […] Reaching full-receptor occupancy, which is predicted to produce maximal efficacy, is desirable at 10 μM concentration of all the compounds was used.

hCB2Rs [7] = biological target: T2, hCB2Rs; test: Competition receptor binding with [3H]CP-55,940 in CHO-hCB2 cell homogenates; settings: Table 3; read-out: hCB2R Ki
Protocol: as §3, §4

[8] = mouse brain homogenates, 0.2 nM [3H]CP-55,940, read-out: [3H]CP binding Ki

In the case of CCCCn1cc(C(=O)Cc2cccc3ccccc23)c2cccc(OC)c21, the melting point is reported as 110 to 113 °C.

With CCCCn1cc(C(=O)c2cccc3ccccc23)c2c(O)cccc21 [Compound M1] the locomotor activity (NIH Swiss mice [1]) was “reduction of locomotor activity similar to that observed with administration of JWH-073”, the “[35S]GTPγS Binding, 1 μM” value (CB1Rs [2]) was 0.17 ± 0.01 pmol/mg and the “[35S]GTPγS Binding, +O-2050 (1 μM)” value (CB1Rs [2]) was 0.07 ± 0.01 pmol/mg. For the same compound, the “[35S]GTPγS Binding Emax” value (CB1Rs [2]; concentration-effect, mouse brain homogenates) was 0.14 ± 0.01^b pmole/mg, the EC50 (CB1Rs [2]; concentration-effect, mouse brain homogenates, read-out: [35S]GTPγS Binding EC50) was 113 ± 29.2 nM and the “[35S]GTPγS Binding, 10 μM” value (CB1Rs [2]) was 0.14±0.01 pmole/mg and 0.14 ± 0.01^a pmole/mg. For the same compound, the “minimum core body temperature recorded” value (NIH Swiss mice [3]; 10 mg/kg) was 30.32±0.66 °C, the “time to maximal core body temperature reduction” value (NIH Swiss mice [3]; 10 mg/kg) was 58.00 ± 4.64 min and the Ki (CB1Rs [4]; [8]) was 14.1 ± 3.5 nM.

In the case of O=C(c1cccc2ccccc12)c1cn(CCCCO)c2ccccc12 [Compound M5], the “[35S]GTPγS Binding, 1 μM” value (CB1Rs [2]) is reported as 0.12 ± 0.00 pmol/mg, the “[35S]GTPγS Binding, +O-2050 (1 μM)” value (CB1Rs [2]) is reported as 0.05 ± 0.01 pmol/mg and the “[35S]GTPγS Binding, 10 μM” value (CB1Rs [2]) is reported as 0.16±0.02 pmole/mg and 0.16 ± 0.02^a pmole/mg. For the same compound, the Ki (CB1Rs [4]; [8]) was 224 ± 9 nM.

For O=C(O)CCCn1cc(C(=O)c2cccc3ccccc23)c2ccccc21 [Compound M6, 4-(3-(1-naphthoyl)-1H-indole-1-yl)-1-butanoic acid, reference compound], the “displacement of [3H]CP-55,940 specific binding” value (CB1Rs [4]; concentrations as high as 10 μM) was “less than 10%”.

CCCCn1cc(C(=O)Cc2ccccc2)c2cccc(OC)c21 gave a melting point of 65 to 68 °C.

For CCCCCn1cc(C(=O)c2cccc3ccccc23)c2ccccc21 [JWH-018], the EC50 (CB1Rs [2]; JWH-018 alone, read-out: EC50 of JWH-018 for G-protein activation, alone) was 8 nM, the EC50 (CB1Rs [2]; read-out: EC50 of JWH-018 in the presence of M4, + M4 1 μM) was 178 nM and the EC50 (CB1Rs [2]; read-out: EC50 of JWH-018 in the presence of M4, + M4 3 μM) was 263 nM. For the same compound, the EC50 (CB1Rs [2]; read-out: EC50 of JWH-018 in the presence of M4, + M4 10 μM) was 1560 nM and the “maximal decrease in core body temperature to” value (NIH Swiss mice [3]; JWH-018 3 mg/kg, alone) was 30.28+/−0.71 °C.

For CCCCn1cc(C(=O)c2cccc3ccccc23)c2ccc(O)cc21 [Compound M3], the “[35S]GTPγS Binding, 1 μM” value (CB1Rs [2]) was 0.04 ± 0.00 pmol/mg, the “[35S]GTPγS Binding, +O-2050 (1 μM)” value (CB1Rs [2]) was 0.02 ± 0.01 pmol/mg and the “[35S]GTPγS Binding, 10 μM” value (CB1Rs [2]) was 0.11±0.02 pmole/mg and 0.11 ± 0.02^a,b pmole/mg. For the same compound, the Ki (CB1Rs [4]; mouse brain homogenates, 0.2 nM [3H]CP-55,940, read-out: CB1R affinity (Ki)) was 1280 ± 470 nM.

In the case of CC1=CC[C@@H]2[C@@H](C1)c1c(O)cc(CC#CCCCNS(C)(=O)=O)cc1OC2(C)C [Compound O-2050, reference compound], the “antagonism of AC-inhibition produced by the CB1R full agonist JWH-073” value ([5]; 1 μM concentration) is reported as “antagonized AC-inhibition”.

CCCCn1cc(C(=O)Cc2ccc(OC)cc2)c2cccc(OC)c21 gave a melting point of 72 to 74 °C.

CCCCn1cc(C(=O)Cc2ccccc2F)c2cccc(OC)c21 showed a melting point of 86 to 88 °C.

CCCCn1cc(-c2cccc3ccccc23)c2cccc(OC)c21 showed a melting point of 74 to 76 °C.

With COc1cccc2c(C(=O)c3cccc4ccccc34)cn(CCN3CCOCC3)c12 the melting point was 149 to 152 °C.

In the case of CCCCn1cc(C(=O)Cc2ccc(F)cc2)c2cccc(OC)c21 [TV-5-129, 1-(1-butyl-7-methoxy-1H-indol-3-yl)-2-(4-fluorophenyl)ethanone], the inhibition at 10 µM (hCB2Rs [6]) is reported as 22.1%, the Ki (hCB2Rs [7]) is reported as 281 nM and the inhibition at 10 µM ([5]; N2a, 10 μM, Neuro2A cells) is reported as -4%. It also gave a Ki (CB1Rs [4]; Table 3, read-out: mCB1R Ki) of 387 ± 77 nM.

From US9416103B2, “Use of the aminoalkylindole JWH-073-M4 and related compounds as neutral CB1 receptor antagonists for the treatment of alcoholism, drug abuse, obesity, and obesity-related diseases” (The Board of Trustees of the University of Arkansas, priority 2012, dated 2016)
